The test addresses recombinant HCV NS5B (HCV RNA-dependent RNA polymerase) (Hepatitis C virus genotype 1b, UniProt P26663). The experiment in a line: biochemical.
Setting [1] is: related polymerase activity (Example 27 list), read-out: IC50.
The mark [2] stands for this setting: HCV polymerase activity, list of compounds of Example 27, read-out: IC50 (polymerase activity).

Drawing on patent US6881741B2 (ViroChem Pharma Inc., priority 2001, dated 2005), this text covers IC50 for 38 compounds.

Each structure is given as a SMILES string. Read-outs that look alike come from different tables or passages of the source. Bounds are passed on as bounds.

Sequence of recombinant HCV NS5B (HCV RNA-dependent RNA polymerase) (P26663 2420-3010 limits assumed): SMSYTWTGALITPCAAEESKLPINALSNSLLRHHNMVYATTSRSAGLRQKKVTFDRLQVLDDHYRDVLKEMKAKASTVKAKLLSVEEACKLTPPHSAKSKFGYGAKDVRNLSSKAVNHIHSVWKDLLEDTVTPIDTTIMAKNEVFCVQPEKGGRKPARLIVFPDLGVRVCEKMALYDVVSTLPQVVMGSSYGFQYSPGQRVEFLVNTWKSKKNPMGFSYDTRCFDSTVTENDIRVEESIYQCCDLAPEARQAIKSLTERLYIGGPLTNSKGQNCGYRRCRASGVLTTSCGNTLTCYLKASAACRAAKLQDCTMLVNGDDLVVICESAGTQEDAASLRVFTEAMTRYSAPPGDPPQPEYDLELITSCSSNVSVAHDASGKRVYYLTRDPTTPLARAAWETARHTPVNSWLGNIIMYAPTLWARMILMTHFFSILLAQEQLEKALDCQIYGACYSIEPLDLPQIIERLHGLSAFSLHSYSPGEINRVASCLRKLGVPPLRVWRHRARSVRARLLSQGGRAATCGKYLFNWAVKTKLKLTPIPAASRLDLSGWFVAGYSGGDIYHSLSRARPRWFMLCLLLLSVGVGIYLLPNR

As to `Cc1ccccc1S(=O)(=O)Nc1cc(-c2cccc3cccnc23)sc1C(=O)O` [Compound 61, 5-QUINOLIN-8-YL-3-(TOLUENE-2-SULFONYLAMINO)-THIOPHENE-2-CARBOXYLIC ACID], under setting [1], the IC50 was > 20 µM.
For the compound `CC1CCC(C(=O)N(c2cc(-c3ccccc3)sc2C(=O)O)C(C)C)C1` (centres unmarked) [Compound 408, 3-[ISOPROPYL-(3-METHYL- CYCLOPENTANECARBONYL)-AMINO]-5- PHENYL-THIOPHENE-2-CARBOXYLIC ACID], the IC50 under setting [2] fell in the range of 5 to 20 µM.
For the compound `O=C(O)c1sc(-c2ccccc2)cc1NS(=O)(=O)c1ccc(-c2csnn2)s1` [Compound 46, 5-PHENYL-3-(5-[1,2,3]THIADIAZOL-4-YL-THIOPHENE-2-SULFONYLAMINO)-THIOPHENE-2-CARBOXYLIC ACID], under setting [1], the IC50 lay in the range of 5 to 20 µM.
`CCCCCc1ccc(S(=O)(=O)Nc2cc(-c3ccccc3)sc2C(=O)O)cc1` [Compound 174, 3-(4-PENTYL-BENZENESULFONYLAMINO)-5-PHENYL-THIOPHENE-2-CARBOXYLIC ACID]: the IC50 under setting [1] fell in the range of 5 to 20 µM.
For `CCOC(=O)c1c(C)oc(-c2ccc(Cl)cc2)c1S(=O)(=O)Nc1cc(-c2ccccc2)sc1C(=O)O` [Compound 144, 4-(2-CARBOXY-5-PHENYL-THIOPHEN-3-YLSULFAMOYL)-5-(4-CHLORO-PHENYL)-2-METHYL-FURAN-3-CARBOXYLIC ACID ETHYL ESTER], under setting [1], the IC50 lay in the range of 5 to 20 µM.
Turning to `O=C(O)c1sc(-c2ccccc2)cc1NS(=O)(=O)c1ccccc1OC(F)(F)F` [Compound 31, 5-PHENYL-3-(2-TRIFLUOROMETHOXY-BENZENESULFONYLAMINO)-THIOPHENE-2-CARBOXYLIC ACID], the IC50 under setting [1] is > 20 µM.
Regarding `Cc1cccc(-c2cc(NS(=O)(=O)c3ccccc3C)c(C(=O)O)s2)c1` [Compound 64, 3-(TOLUENE-2-SULFONYLAMINO)-5-M-TOLYL-THIOPHENE-2-CARBOXYLIC ACID], the IC50 under setting [1] is < 5 µM.
In the case of `O=C(O)c1sc(-c2ccccc2)cc1N(C(=O)c1ccc(Cl)cc1Cl)C1CCCCC1` [Compound 553, 3-[CYCLOHEXYL-(2,4-DICHLORO- BENZOYL)-AMINO]-5-PHENYL- THIOPHENE-2-CARBOXYLIC ACID], the IC50 under setting [2] is < 5 µM.
With `O=C(O)c1sc(-c2ccccc2)cc1NS(=O)(=O)c1cc(Cl)c(O)c(Cl)c1` [Compound 169, 3-(3,5-DICHLORO-4-HYDROXY-BENZENESULFONYLAMINO)-5-PHENYL-THIOPHENE-2-CARBOXYLIC ACID], the IC50 under setting [1] fell in the range of 5 to 20 µM.
With `CCCC(=O)N(Cc1cccc(OC)c1)c1cc(-c2ccccc2)sc1C(=O)O` [Compound 475, 3-[BUTYRYL-(3-METHOXY-BENZYL)- AMINO]-5-PHENYL-THIOPHENE-2- CARBOXYLIC ACID], the IC50 under setting [2] is 5 to 20 µM.
`CC(c1ccccc1)N(C(=O)c1ccc(Cl)cc1Cl)c1cc(-c2ccccc2)sc1C(=O)O` (centres unmarked) [Compound 403, 3-[(2,4-DICHLORO-BENZOYL)-(1-PHENYL- ETHYL)-AMINO]-5-PHENYL-THIOPHENE- 2-CARBOXYLIC ACID]: the IC50 under setting [2] is < 5 µM.
Regarding `CN(C(=O)c1cc2ccccc2o1)c1cc(-c2ccccc2)sc1C(=O)O` [Compound 130, 3-[(BENZOFURAN-2-CARBONYL)-METHYL-AMINO]-5-PHENYL-THIOPHENE-2-CARBOXYLIC ACID], the IC50 under setting [1] was > 20 µM.
Turning to `O=C(O)c1sc(-c2ccccc2)cc1NC(=O)N1CCC(n2c(=O)[nH]c3ccccc32)CC1` [Compound 113, 3-{[4-(2-OXO-2,3-DIHYDRO-BENZOIMIDAZOL-1-YL)-PIPERIDINE-1-CARBONYL]-AMINO]-5-PHENYL-THIOPHENE-2-CARBOXYLIC ACID], the IC50 under setting [1] is > 20 µM.
Still for that read-out and setting: the value for `COc1ccc(S(=O)(=O)Nc2cc(-c3ccccc3)sc2C(=O)O)c([N+](=O)[O-])c1` [Compound 152, 3-(4-METHOXY-2-NITRO-BENZENESULFONYLAMINO)-5-PHENYL-THIOPHENE-2-CARBOXYLIC ACID] was 5 to 20 µM.
As to `O=C(O)c1sc(-c2ccccc2)cc1N(Cc1cccc(Cl)c1)C(=O)C1CC1` [Compound 480, 3-[(3-CHLORO-BENZYL)- CYCLOPROPANECARBONYL-AMINO]-5- PHENYL-THIOPHENE-2-CARBOXYLIC ACID], the IC50 under setting [2] fell in the range of 5 to 20 µM.
Regarding `Cc1ccc(S(=O)(=O)N(C)c2cc(-c3ccccc3)sc2C(=O)O)c(C)c1` [Compound 235, 3-[(2,4-DIMETHYL-BENZENESULFONYL)-METHYL-AMINO]-5-PHENYL-THIOPHENE-2-CARBOXYLIC ACID], the IC50 under setting [1] is < 5 µM.
Take `CCOC(=O)c1c(C)c(S(=O)(=O)Nc2cc(-c3ccccc3)sc2C(=O)O)c(-c2ccc(Cl)cc2)n1-c1ccccc1` [Compound 168, 4-(2-CARBOXY-5-PHENYL-THIOPHEN-3-YLSULFAMOYL)-5-(4-CHLORO-PHENYL)-3-METHYL-1-PHENYL-1H-PYRROLE-2-CARBOXYLIC ACID ETHYL ESTER]: the IC50 under setting [1] was 5 to 20 µM.
Regarding `CCN(C(=O)CCC1CCCC1)c1cc(-c2ccccc2)sc1C(=O)O` [Compound 392, 3-[(3-CYCLOPENTYL-PROPIONYL)- ETHYL-AMINO]-5-PHENYL-THIOPHENE-2- CARBOXYLIC ACID], the IC50 under setting [1] was < 5 µM.
Same read-out and setting: the value for `CC(C)N(C(=O)c1ccc(C#N)cc1)c1cc(-c2ccccc2)sc1C(=O)O` [Compound 311, 3-[(4-CYANO-BENZOYL)-ISOPROPYL- AMINO]-5-PHENYL-THIOPHENE-2- CARBOXYLIC ACID] was 5 to 20 µM.
Take `Cc1ccccc1CN(C(=O)C1CCC1)c1cc(-c2ccccc2)sc1C(=O)O` [Compound 432, 3-[CYCLOBUTANECARBONYL-(2- METHYL-BENZYL)-AMINO]-5-PHENYL- THIOPHENE-2-CARBOXYLIC ACID]: the IC50 under setting [2] was in the range of 5 to 20 µM.
Take `CC(=O)c1ccc(-c2cc(N(C(=O)c3ccc(Cl)cc3Cl)C(C)C)c(C(=O)O)s2)cc1` [Compound 355, 5-(4-ACETYL-PHENYL)-3-[)2,4-DICHLORO- BENZOYL)-ISOPROPYL-AMINO]- THIOPHENE-2-CARBOXYLIC ACID]: the IC50 under setting [1] is < 5 µM.
In the case of `Cc1ccccc1S(=O)(=O)Nc1cc(-c2ccccc2C#N)sc1C(=O)O` [Compound 102, 5-(2-CYANO-PHENYL)-3-(TOLUENE-2-SULFONYLAMINO)-THIOPHENE-2-CARBOXYLIC ACID], the IC50 under setting [1] was in the range of 5 to 20 µM.
As for `C=CCN(C(=O)Cc1ccc(F)cc1Cl)c1cc(-c2ccccc2)sc1C(=O)O` [Compound 349, 3-{ALLYL-[2-(2-CHLORO-4-FLUORO- PHENYL)-ACETYL]-AMINO}-5-PHENYL- THIOPHENE-2-CARBOXYLIC ACID], the IC50 under setting [1] lay in the range of 5 to 20 µM.
Turning to `Cc1ccccc1S(=O)(=O)Nc1cc(-c2cccc(C#N)c2)sc1C(=O)O` [Compound 117, 5-(3-CYANO-PHENYL)-3-(TOLUENE-2-SULFONYLAMINO)-THIOPHENE-2-CARBOXYLIC ACID], the IC50 under setting [1] was < 5 µM.
For the compound `Cc1cccc(S(=O)(=O)Nc2cc(-c3ccccc3)sc2C(=O)O)c1` [Compound 16, 5-PHENYL-3-(TOLUENE-3-SULFONYLAMINO)-THIOPHENE-2-CARBOXYLIC ACID], under setting [1], the concentration for half-maximal inhibition (IC50) is 5 to 20 µM.
Take `CC(C)N(C(=O)c1ccc(Cl)cc1Cl)c1cc(C2=CCN(C(=O)OCc3ccccc3)CC2)sc1C(=O)O` [Compound 504, 4-(5-CARBOXY-4-[(2,4-DICHLORO- BENZOYL)-ISOPROPYL-AMINO]- THIOPHEN-2-YL)-3,6-DIHYDRO-2#H!- PYRIDINE-1-CARBOXYLIC ACID BENZYL ESTER]: the IC50 under setting [2] is < 5 µM.
Turning to `Cc1ccc(S(=O)(=O)Nc2cc(-c3ccc(F)cc3)sc2C(N)=O)cc1` [Compound 564, 5-(4-FLUORO-PHENYL)-3-(TOLUENE-4- SULFONYLAMINO)-THIOPHENE-2- CARBOXYLIC ACID AMIDE], the IC50 under setting [2] was 5 to 20 µM.
For the compound `Cc1ccccc1S(=O)(=O)Nc1cc(-c2ccc(F)c(F)c2)sc1C(=O)O` [Compound 70, 5-(3,4-DIFLUORO-PHENYL)-3-(TOLUENE-2-SULFONYLAMINO)-THIOPHENE-2-CARBOXYLIC ACID], the IC50 under setting [1] is < 5 µM.
Turning to `Cc1ccc(S(=O)(=O)Nc2cc(-c3ccc(C#N)cc3)sc2C(=O)O)cc1` [Compound 290, 5-(4-CYANO-PHENYL)-3-(TOLUENE-4-SULFONYLAMINO)-THIOPHENE-2-CARBOXYLIC ACID], the IC50 under setting [1] lay in the range of 5 to 20 µM.
Consider `Cc1cc(S(=O)(=O)Nc2cc(-c3ccccc3)sc2C(N)=O)c(C)cc1Cl` [Compound 580, 3-(4-CHLORO-2,5 DIMETHYL- BENZENESULFONYLAMINO)-5-PHENYL- THIOPHENE-2-CARBOXYLIC ACID AMIDE], for which the IC50 under setting [2] is < 5 µM.
Take `O=C(O)c1sc(-c2ccccc2)cc1NS(=O)(=O)c1ccc(Cl)s1` [Compound 37, 3-(5-CHLORO-THIOPHENE-2-SULFONYLAMINO)-5-PHENYL-THIOPHENE-2-CARBOXYLIC ACID]: the IC50 under setting [1] is < 5 µM.
Consider `CC(C)N(C(=O)c1ccc(C(F)(F)F)cc1)c1cc(-c2ccccc2)sc1C(=O)O` [Compound 243, 3-[ISOPROPYL-(4-TRIFLUOROMETHYL-BENZOYL)-AMINO]-5-PHENYL-THIOPHENE-2-CARBOXYLIC ACID], for which the IC50 under setting [1] is < 5 µM.
Consider `CN(C(=O)c1sccc1Cl)c1cc(-c2ccccc2)sc1C(=O)O` [Compound 186, 3-[(3-CHLORO-THIOPHENE-2-CARBONYL)-METHYL-AMINO]-5-PHENYL-THIOPHENE-2-CARBOXYLIC ACID], for which, under setting [1], the IC50 was 5 to 20 µM.
As for `Cc1ccccc1S(=O)(=O)Nc1cc(/C=C/c2ccccc2)sc1C(=O)O` [Compound 108, 5-STYRYL-3-(TOLUENE-2-SULFONYLAMINO)-THIOPHENE-2-CARBOXYLIC ACID], under setting [1], the IC50 is < 5 µM.
Same read-out and setting: the same measure for `Cc1ccccc1C(=O)N(C)c1cc(-c2ccccc2)sc1C(=O)O` [Compound 97, 3-[METHYL-(2-METHYL-BENZOYL)-AMINO]-5-PHENYL-THIOPHENE-2-CARBOXYLIC ACID]: > 20 µM; for `N#Cc1ccccc1S(=O)(=O)Nc1cc(-c2ccccc2)sc1C(=O)O` [Compound 54, 3-(2-CYANO-BENZENESULFONYLAMINO)-5-PHENYL-THIOPHENE-2-CARBOXYLIC ACID]: < 5 µM; for `COC(=O)c1sc(-c2ccccc2)cc1NC(=O)c1ccccc1C(=O)O` [Compound 51, 3-(2-CARBOXY-BENZOYLAMINO)-5-PHENYL-THIOPHENE-2-CARBOXYLIC ACID METHYL ESTER]: 5 to 20 µM.
Regarding `CC1CCCCC1C(=O)N(c1cc(-c2ccccc2)sc1C(=O)O)C(C)C` (centres unmarked) [Compound 379, 3-[ISOPROPYL-(2-METHYL- CYCLOHEXANECARBONYL)-AMINO]-5- PHENYL-THIOPHENE-2-CARBOXYLIC ACID], the IC50 under setting [1] is 5 to 20 µM.

Broadly, the IC50 is the concentration needed to halve the response being measured.
